Reference: patent US20230138047A1, “ANTI-CLAUDIN-1 MONOCLONAL ANTIBODIES FOR THE PREVENTION AND TREATMENT OF FIBROTIC DISEASES” (Université de Strasbourg, priority 2019, published 2023)
Where a name gives a salt, the structure may show the parent alone.

Key:
[1] = system: bleomycin-induced pulmonary fibrosis
Method: Materials and Methods Protocol to Examine the Effects of an anti-human CLDN1 Monoclonal Antibody in Preventing Fibrosis in a Bleomycin-Induced Pulmonary Fibrosis Model. Pathogen-free 6 weeks old female C57BL/6Jmice were obtained from Japan SLC, Inc. (Japan). At Day 0, 54 mice were induced to develop pulmonary fibrosis by a single intratracheal administration of bleomycin hydrochloride (BLM, Nippon Kayaku, Japan) in saline at a dose of 3.0 mg/kg, in a volume of 50 μL per animal using Microsprayer® (Penn-Century, USA). In each slot, the mice were randomized into 3 groups of 18 mice based on their body weight on the day before the start of treatment at Day 0. Individual body weights were measured daily during the experimental period. Survival, clinical signs and behaviour of mice were monitored daily.
Mice groups. Group 1 (Vehicle): Eighteen bleomycin-induced pulmonary fibrosis model mice were intraperitoneally administered vehicle [Saline] in a volume of […] once weekly from Day 0 to 20. […] Group 3 (Dexamethasone): Eighteen bleomycin-induced pulmonary fibrosis model mice were orally administered pure water supplemented with Dexamethasone at a dose of 0.25 mg/kg (in a volume of 10 mL/kg) once daily from Day 0 to 20. Mice in all groups were sacrificed at Day 21.
Survival, biochemical and histological analysis. […]

[2] = system: UUO-induced renal interstitial fibrosis; experiment: Unilateral ureteral obstruction (UUO)-induced renal interstitial fibrosis; type: in vivo
Method: Test Substances. A murinized version of an anti CLDN1 mAb was synthetized at the Inventors' laboratory and used in the present study. […] To prepare dosing solution, the anti-CLDN1 mAb was diluted with a saline solution used as vehicle. Telmisartan (Micardis®) was purchased from Boehringer Ingelheim GmbH (Germany) and dissolved in pure water.
Unilateral Ureteral Obstruction (UUO) Surgery. On Day 0, UUO surgery was performed under three types of mixed anesthetic agents (medetomidine, midazolam, butorphanol). After shaving the hair, the abdomen was cut open and the left ureter was exteriorized. The ureter was ligated by 4-0 silk sutures at two points. The peritoneum and the skin were closed with sutures, and the mice were transferred to a clean cage and kept until recovery from anesthesia.
Route of Drug Administration. The anti-CLDN1 mAb was administered intraperitoneally at a volume of 100 μL/mouse. Telmisartan was administered orally at a volume of 10 μL/mouse.
Treatment Doses. The anti-CLDN1 mAb was administered at a dose of 500 μg/100 μL/mouse. Telmisartan was administered at a dose of 30 mg/kg once daily.
Animals. Seven-week-old female C57BL/6J mice were obtained from Japan SLC, Inc. (Japan). Animals were housed and fed with a normal diet (CE-2; CLEA Japan, Japan) under controlled conditions. All animals used in the study were housed and cared for in accordance with the Japanese Pharmacological Society Guidelines for Animal Use. The animals were maintained in a SPF facility under controlled conditions of temperature (23±3° C.), humidity (50±20%), lighting (12-hour artificial light and dark cycles; light from 8:00 to 20:00) and air exchange. A high pressure was maintained in the experimental room to prevent contamination of the facility. The animals were housed in TPX cages (CLEA Japan) with a maximum of 4 mice per cage. Sterilized Paper-Clean (Japan SLC) was used for bedding and replaced once a week.
Measurement of Plasma Biochemistry. For plasma biochemistry, non-fasting blood was collected in polypropylene tubes with anticoagulant (Novo-Heparin, Mochida Pharmaceutical Co. Ltd., Japan) and centrifuged at 1,000×g for 15 minutes at 4° C. The supernatant was collected and stored at −80° C. until use. Plasma urea nitrogen was measured by FUJI DRI-CHEM 7000 (Fujifilm, Japan).
Measurement of Kidney Biochemistry. To quantify kidney hydroxyproline content, frozen left kidney samples were processed by an alkaline-acid hydrolysis method as follows. Kidney samples were dissolved in 2N NaOH at 65° C., and autoclaved at 121° C. for 20 minutes. The lysed samples (150 μL) were acid-hydrolyzed with 150 μL of 6N HCl at 121° C. for 20 minutes, and neutralized with 150 μL of 4N NaOH containing 10 mg/mL activated carbon. AC buffer (2.2M acetic acid/0.48M citric acid, 150 μL) was added to the samples, followed by centrifugation to collect the supernatant. A standard curve of hydroxyproline was constructed with serial dilutions of trans-4-hydroxy-L-proline (Sigma-Aldrich, USA) starting at 16 μg/mL. The prepared samples and standards (each 400 μL) were mixed with 400 μL chloramine T solution (Nacalai Tesque Inc., Japan) and incubated for 25 minutes at room temperature. The samples were then mixed with Ehrlich's solution (400 μL) and heated at 65° C. for 20 minutes for color development. After samples were cooled on ice and centrifuged to remove precipitates, the optical density of each supernatant was measured at 560 nm. The concentrations of hydroxyproline were calculated from the hydroxyproline standard curve. Protein concentrations of kidney samples were determined using a BCA protein assay kit (Thermo Fisher Scientific, USA) and used to normalize the calculated hydroxyproline values. Kidney hydroxyproline contents were expressed as μg per mg protein.
Histopathological Analyses. For PAS staining, sections were cut from paraffin blocks and stained with Schiff's reagent (Wako Pure Chemical Industries) according to the manufacturer's instructions. […]

[3] = system: BLM-induced skin fibrosis; experiment: Bleomycin-induced skin fibrosis model; type: in vivo, mouse; conditions: 50 mg/kg i.p., BLM for 4 weeks
Excerpt: BLM Model and Sampling. As indicated on the scheme presented on FIG. 6, the BLM is subcutaneously injected every other day into the pre-shaved back of mice for 4 weeks. The injection sites are located at the corners of a 1.5 cm^2-square shaved area and used in rotation (corner 1, corner 2, corner 3, corner 4, corner 1, etc). A 5-mm circle is clipped using a dermal punch and used for collagen quantification. The remaining intact area is cut out into 3 rectangles, one for histology and two for biochemical analyses.
Effects of Imatinib on Skin Fibrosis. Imatinib mesylate is a tyrosine kinase inhibitor against c-Abl, PDGFR, and several other tyrosine kinases (Alfiya et al., Arthritis Rheum., 2009, 60: 219). c-Abl is crucial for induction of ECM proteins through the TGF-β pathway. Its inhibition may reduce the synthesis of EMC components. Imatinib interferes with PDGF signalling by blocking the tyrosine kinase activity of PDGFR (Alfiya et al., Arthritis Rheum., 2009, 60: 219). The study design is presented on FIG. 7.

[4] = system: bleomycin-induced pulmonary fibrosis; experiment: Bleomycin-induced pulmonary fibrosis model, late treatment (Day 7 to 20); type: in vivo, C57BL/6J mice; conditions: mean±SD, Day 21
Excerpt: Protocol to Examine the Effects of anti-human CLDN1 Monoclonal Antibody in Treating Fibrosis in a Bleomycin-Induced Pulmonary Fibrosis Model. Pathogen-free 6 weeks old female C57BL/6Jmice will be obtained from Japan SLC, Inc. (Japan). […] The mice were transferred to a clean cage (resting cage) and kept until recovery from anesthesia. The bleomycin administration took place on two separate days, with equal numbers of mice assigned to each day. […] Mice groups. […] Survival, biochemical and histological analysis. […] Lung hydroxyproline content was assessed according to a routine method. Statistical tests. Statistical tests were performed using Kruskal-Wallis test.

human Claudin-1 (CLDN1) [5] = molecular target: T1, human Claudin-1 (CLDN1) (human, UniProt O95832 1-211); experiment: flow cytometry on RPTEC/TERT1 kidney cells, PE median fluorescence, Michaelis-Menten fit
T1 construct: whole, on cells; Tight junction membrane protein; endogenously expressed on the cell lines, primary cells and tissues used; also called CLDNA
T1 sequence (looked up): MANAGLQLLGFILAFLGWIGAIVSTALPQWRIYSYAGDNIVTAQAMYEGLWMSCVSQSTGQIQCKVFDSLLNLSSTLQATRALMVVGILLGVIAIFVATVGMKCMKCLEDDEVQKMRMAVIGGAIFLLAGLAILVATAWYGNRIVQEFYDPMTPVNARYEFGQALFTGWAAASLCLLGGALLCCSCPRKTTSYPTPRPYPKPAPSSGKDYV
Method: (§1) FIG. 4. Binding Properties of Humanized CLDN1-specific MAbs Targeting CLDN1 Expressed on Kidney RPTEC/TERT1 and Lung A549 Cell Lines. Cells were incubated with increasing concentrations of humanized H3L3 CLDN1-specific mAb, as indicated. Representative histograms show binding of humanized H3L3 CLDN1-specific mAb at the saturation point for each specific cells line: (A) RPTEC/TERT1 (50 μg/mL) and (B) A549 (20 μg/mL). Binding was measured by flow cytometry after incubation with PE-labelled anti-human and analyzed with Cytoflex and FlowJo V10. […] The graphs show binding of humanized H3L3 CLDN1-specific mAb until the saturation point for each specific cell line.
(§2) Binding Studies. Cells were de-attached using a solution of EDTA (4 mM) and re-suspended in PBS containing 1% FBS at 4° C. Then, 150,000 cells were incubated with increasing concentrations of the humanized H3L3 CLDN1-specific mAb (see WO/2017/162678) and the binding signals were read by flow cytometry after incubation with PE-labelled anti-human using a dilution of 1:100 and analyzed with Cytoflex and FlowJo V10. Two washes with PBS containing 1% FBS were performed after every antibody incubation. A binding curve for each cell line was built using the PE median fluorescence intensity (MFI) and the Kd of the interaction was calculated by applying the Michaelis-Menten mathematical model in R 3.5.1.

human Claudin-1 (CLDN1) [6] = molecular target: T1, human Claudin-1 (CLDN1); experiment: flow cytometry on A549 lung cells, PE median fluorescence, Michaelis-Menten fit
Method: as §1, §2

[7] = Antibody biodistribution in mice (Alexa-fluor 750 label, ex vivo organ fluorescence); design: species or system Balb/c mice; conditions: 500 μg i.p.; organs harvested at 24 hours and 48 hours
Method: Reagents and Antibodies. The anti-Claudin-1 monoclonal antibody (anti-CLDN1 mAb-OM-7D3-B3) was produced as previously described (Fofana et al., Gastroenterology, 2010, 139: 953-964, e1-4). Control mAb (rat IgG2b clone LTF-25, Bio X Cell) was also used.
Antibody biodistribution. The antibodies were labeled with Alexa-fluor 750 (RD-Biotech, Besangon, France). Eight week-old Balb/c mice were injected intraperitoneally with 500 μg of Alexa-fluor 750-labeled CLDN1-specific or control mAb. Organs were harvested 24 hours and 48 hours as previously described (Krieger et al., Hepatology, 2010, 51: 1144-1157) and ex vivo organ-specific fluorescence was detected with an IVIS Lumina 50 (Xenogen-Caliper-Perkin-Elmer) and expressed as average efficiency.
Statistical Analyses. The Mann-Whitney test was used. A p-value <0.05 was considered significant. Statistical analyzes were performed with GraphPad Prism 6 software.

[8] = kidney sections versus Vehicle group

In the case of `C[C@@H]1C[C@H]2[C@@H]3CCC4=CC(=O)C=C[C@]4(C)[C@@]3(F)[C@@H](O)C[C@]2(C)[C@@]1(O)C(=O)CO` [Dexamethasone], the “mice found dead before reaching Day 21” value ([1]; 18 mice per group) is reported as “Ten out of 18” and the “survival rate compared with Vehicle group” value ([1]; Kaplan-Meier, Log Rank Test) is reported as “significant decrease”.

With `CCCc1nc2c(C)cc(-c3nc4ccccc4n3C)cc2n1Cc1ccc(-c2ccccc2C(=O)O)cc1` [Telmisartan] the Sirius red-positive area ([2]; fibrosis area, mean ± S.D., n = 8) was 2.44 ± 1.19%, the “inflammatory cell infiltration, F4/80 immunostaining” value [2, 8] was “lower than that in the Vehicle group” and the “inflammatory cell infiltration, PAS staining” value [2, 8] was “lower than in the Vehicle group”. It also gave a Kidney hydroxyproline ([2]; left kidney, mean ± S.D., n = 8) of 6.19 ± 2.31 μg/mg total protein, a Right kidney weight ([2]; mean ± S.D., n = 8) of 139 ± 9 mg and a Body weight ([2]; mouse, in vivo) of 18.7 ± 1.1 g. It also gave a Plasma urea nitrogen ([2]; mouse, in vivo) of 33.9 ± 5.2 mg/dL and a Left kidney weight ([2]; obstructed kidney, mean ± S.D., n = 8) of 630 ± 160 mg.

In the case of `Cc1ccc(NC(=O)c2ccc(CN3CCN(C)CC3)cc2)cc1Nc1nccc(-c2cccnc2)n1` [Imatinib, Imatinib mesylate], the dermal thickness ([3]; HE staining) is reported as “significant decrease” and the skin fibrosis area ([3]; Masson staining) is reported as “significant decrease”.

In the case of `COC(=O)c1ccc2c(c1)NC(=O)/C2=C(\Nc1ccc(N(C)C(=O)CN2CCN(C)CC2)cc1)c1ccccc1` [Nintedanib], the lung hydroxyproline levels [4] is reported as 51.3±9.0.

B1: humanized H3L3 CLDN1-specific mAb (antibody, V domains shown)
VH: QVQLVESGGGVVQPGRSLRLSCLGSGFSFSSYGMNWVRQAPGKGLEWVASISPSGSYFYYADSVKGRFTISRDNSKNTLYLQMTSLRAEDTAIYYCARLPGFNPPFDHWGQGTLVTVSS
VL: DIQMTQSPSSLSASVGDRVTITCKASQNVGGNVDWYQWKPGKAPKLLIYGASNRYTGVPDRFRGSGSGTDFTLTISSLQPEDVATYYCLQYKNNPWTFGGGTKVEIK
notes: also called anti-CLDN1 mAb H3L3; humanized anti-CLDN1 mAb
Work on B1 yielded a Kd (human Claudin-1 (CLDN1) [5]) of 0.053 µM and a Kd (human Claudin-1 (CLDN1) [6]) of 0.0163 µM.

B2: OM-7D3-B3: rat monoclonal antibody against human Claudin-1 secreted by hybridoma DSM ACC2938; VH SEQ ID NO: 1, VL SEQ ID NO: 2 (antibody, V domains shown)
VH: EVQLVESGGGLVQPGRSLKLSCLGSGFSFSSYGMNWIRQAPGKGLEWVASISPSGSYFYYADSVKGRFTISRENAKNTLYLQMTSLRAEDTALYYCARLPGFNPPFDHWGQGVVVTVSS
VL: NTVMTQSPTSMFMSVGDRVTMNCKASQNVGGNVDWYQWKPGQSPKLLMYGASNRYTGVPDRFRGSGSGTDFTLTISNMQTEDLAVYYCLQYKNNPWTFGGGTKVELK
modifications: variable heavy chain of OM-7D3-B3; variable light chain of OM-7D3-B3
With B2 the “organ enrichment of labeled antibody versus control mAb” value [7] was “enrichment in the anti-CLDN1 monoclonal antibody was observed in skin, kidneys, lungs, intestines and liver”.
